Data from ChEMBL document CHEMBL1131816, “Novel quinolizidine salicylamide influenza fusion inhibitors” (Bioorg Med Chem Lett, 1999).
In brackets after ≈: the same amount, converted by molar mass.

Legend:
[1] = Inhibitory activity against A/WSN/33 strain (an H1N1 subtype) influenza virus was measured by cell protection assay in MDBK cells; format: functional, cell-based, Bos taurus
Influenza A virus = experiment: Cytotoxicity against A/WSN/33 strain (an H1N1 subtype) influenza virus in the plaque reduction assay; format: functional
[2] = Inhibitory activity against A/WSN/33 strain (an H1N1 subtype) influenza virus was measured by cell protection assay in MDBK cells; Not active; format: functional, cell-based, Bos taurus
[3] = Inhibitory activity against A/WSN/33 strain (an H1N1 subtype) influenza virus was measured by cell protection assay in MDBK cells; Value ranges from 0.2-0.3 ug/mL; format: functional, cell-based, Bos taurus

SMILES | EC50 [1] | CC50 (Influenza A virus) | EC50 [2] | EC50 [3]
C[C@@H]1CCC[C@@H]2C[C@@H](NC(=O)c3cc(F)ccc3O)CCN21 | 0.4 µg/mL (≈ 1.31 µM) | > 100 µg/mL | – | –
Cc1cccc(C(=O)N[C@H]2CCN3[C@H](CCC[C@H]3C)C2)c1O | 8 µg/mL (≈ 26.5 µM) | > 100 µg/mL | – | –
C[C@@H]1CCC[C@@H]2C[C@@H](NC(=O)c3ccc(N)c(Cl)c3)CCN21 | – | – | Not Active | –
C[C@@H]1CCC[C@@H]2C[C@@H](NC(=O)c3cc(C(F)(F)F)ccc3O)CCN21 | – | > 100 µg/mL | Not Active | –
C[C@@H]1CCC[C@@H]2C[C@@H](NC(=O)c3ccc(N)cc3O)CCN21 | – | > 100 µg/mL | Not Active | –
CC(=O)Nc1ccccc1C(=O)N[C@H]1CCN2[C@H](CCC[C@H]2C)C1 | – | > 100 µg/mL | Not Active | –
C[C@@H]1CCC[C@@H]2C[C@@H](NC(=O)c3cc(C(=O)c4ccccc4)ccc3O)CCN21 | – | > 100 µg/mL | Not Active | –
C[C@@H]1CCC[C@@H]2C[C@@H](NC(=O)c3cccc(O)c3O)CCN21 | – | 10 µg/mL (≈ 32.9 µM) | Not Active | –
C[C@@H]1CCC[C@@H]2C[C@@H](NC(=O)c3cc4ccccc4cc3O)CCN21 | – | > 100 µg/mL | Not Active | –
C=Cc1ccc(O)c(C(=O)N[C@H]2CCN3[C@H](CCC[C@H]3C)C2)c1 | 2 µg/mL (≈ 6.36 µM) | > 100 µg/mL | – | –
C[C@@H]1CCC[C@@H]2C[C@@H](NC(=O)c3cc(O)ccc3O)CCN21 | – | 50 µg/mL (≈ 164 µM) | Not Active | –
Cc1ccc(C(=O)N[C@H]2CCN3[C@H](CCC[C@H]3C)C2)c(O)c1 | 4 µg/mL (≈ 13.2 µM) | > 100 µg/mL | – | –
C[C@@H]1CCC[C@@H]2C[C@@H](NC(=O)c3ccccc3O)CCN21 | 1.6 µg/mL (≈ 5.55 µM) | > 100 µg/mL | – | –
C[C@@H]1CCC[C@@H]2C[C@@H](NC(=O)c3cc(-c4ccccc4)ccc3O)CCN21 | – | 30 µg/mL (≈ 82.3 µM) | Not Active | –
C[C@@H]1CCC[C@@H]2C[C@@H](NC(=O)c3c(O)cccc3F)CCN21 | 10 µg/mL (≈ 32.6 µM) | > 100 µg/mL | – | –
C[C@@H]1CCC[C@@H]2C[C@@H](NC(=O)c3cc(Cl)c(N)cc3O)CCN21 | 1 µg/mL (≈ 2.96 µM) | > 100 µg/mL | – | –
C[C@@H]1CCC[C@@H]2C[C@@H](NC(=O)c3cc4c(cc3O)C(C)(C)CCC4(C)C)CCN21 | – | 8 µg/mL (≈ 20.1 µM) | Not Active | –
C[C@@H]1CCC[C@@H]2C[C@@H](NC(=O)c3cc(Cl)cc(Cl)c3O)CCN21 | 10 µg/mL (≈ 28 µM) | > 100 µg/mL | – | –
COc1ccc(O)c(C(=O)N[C@H]2CCN3[C@H](CCC[C@H]3C)C2)c1 | 0.6 µg/mL (≈ 1.88 µM) | 100 µg/mL (≈ 314 µM) | – | –
C[C@@H]1CCC[C@@H]2C[C@@H](NC(=O)c3cc(C(C)(C)C)ccc3O)CCN21 | – | 50 µg/mL (≈ 145 µM) | Not Active | –
C[C@@H]1CCC[C@@H]2C[C@@H](NC(=O)c3cc(Cl)c(N=[N+]=[N-])cc3O)CCN21 | – | – | Not Active | –
C[C@@H]1CCC[C@@H]2C[C@@H](NC(=O)c3cc(I)ccc3O)CCN21 | 1 µg/mL (≈ 2.41 µM) | 100 µg/mL (≈ 241 µM) | – | –
COc1cc(N)c(Cl)cc1C(=O)N[C@H]1CCN2[C@H](CCC[C@H]2C)C1 | – | > 100 µg/mL | Not Active | –
C[C@@H]1CCC[C@@H]2C[C@@H](NC(=O)c3cc(Br)ccc3O)CCN21 | 0.8 µg/mL (≈ 2.18 µM) | > 100 µg/mL | – | –
C[C@@H]1CCC[C@@H]2C[C@@H](NC(=O)c3c(O)ccc4ccccc34)CCN21 | – | > 100 µg/mL | Not Active | –
Cc1ccc(O)c(C(=O)N[C@H]2CCN3[C@H](CCC[C@H]3C)C2)c1 | – | 100 µg/mL (≈ 331 µM) | – | 0.2 µg/mL (≈ 0.661 µM)
C[C@@H]1CCC[C@@H]2C[C@@H](NC(=O)c3cc(Cl)ccc3O)CCN21 | 0.8 µg/mL (≈ 2.48 µM) | > 100 µg/mL | – | –
C[C@@H]1CCC[C@@H]2C[C@@H](NC(=O)c3cc(N=[N+]=[N-])ccc3O)CCN21 | 0.5 µg/mL (≈ 1.52 µM) | > 100 µg/mL | – | –
C[C@@H]1CCC[C@@H]2C[C@@H](NC(=O)c3ccccc3N)CCN21 | 5 µg/mL (≈ 17.4 µM) | > 100 µg/mL | – | –
